Measured values reported in patent US6043245A, “Tetrahydrofuran antifungal phosphate” (Schering Corporation, priority 1998, dated 2000).
Read-outs that look alike come from different tables or passages of the source.

Key:
[1] = test system: Cryptococcus neoformans; assay: In vitro antifungal activity against Cryptococcus neoformans; assay type: cell-based
Procedure: (§1) The in vitro anti-fungal activities of the compounds of the formulas II, III and IV against forty-one species of Candida, thirty species of Aspergillus and nine species of Cryptococcus are summarized in Table 5. […] This Aspergillus pulmonary infection model in mice was performed in accordance with the procedures of David Loebenberg et al. entitled "In vitro and in vivo activity of Sch 42427, the active enantiomer of the antifungal agent Sch 39304" published in Antimicrobial Agents and Chemotherapy (1992), Vol. 36, pp. 498-501.
(§2) In Vitro Antifungal Activity(mcg/mL)
(§3) ^3 In vitro activity measured in accordance with procedures for NCCLS

[2] = test system: Candida, Aspergillus and Cryptococcus; assay: In vitro antifungal activity, comparison of geometric mean MICs; assay type: cell-based; conditions: comparison among II, III and IV
Procedure: as §1

[3] = test system: Candida species; assay: In vitro antifungal activity against Candida species; assay type: cell-based
Procedure: as §1, §2, §3

[4] = test system: fungal infection; assay: Antifungal activity in in vivo tests in mice; parameters: species or system mouse; conditions: for antifungal activity in in vivo tests in mice versus existing antifungal agents: versus itraconazole, fluconazole and azoles of US 5,039,676 and WO 93/09114
Procedure: as §1

[5] = In vivo hydrolysis of prodrug; conditions: II to III; III to IV
Text: The compound of formula II hydrolyzes in vivo to the compound of formula III; III then hydrolyzes in vivo to the compound of formula IV.

[6] = test system: Candida albicans; assay: Mice with a systemic Candida albicans infection; assay type: in vivo, mouse; Candida albicans; conditions: 10 mg/kg
[7] = test system: Aspergillus fumigatus; assay: Aspergillus pulmonary infection model in mice; assay type: in vivo, mouse; Aspergillus fumigatus; conditions: 10 mg/kg
Procedure: as §1

[8] = Pharmacokinetic studies in human tissues and serum (metabolism); assay type: in vitro ADME
[9] = Water solubility; assay type: physicochemical
[10] = Plasma pharmacokinetics of formula IV in mice after intravenous di-NMG salt; assay type: in vivo, mouse (male Charles River); parameters: AUC (of formula IV), time zero to 24 hrs: unit not given here; conditions: for AUC (of formula IV), time zero to 24 hrs: Table 3, mouse plasma, IV 20 mg/kg formula IV equivalent of di-NMG salt
Procedure: Concentrations of the compound of formula IV in pooled mouse^1
plasma (2 mice/pool) following intravenous administration of a 20
mg/kg of the compound of formula IV dose equivalent of the di-NMG
salt of the compound of this invention represented by the formula II in
^1 Male Charles River mice having an average body weight of 18-20 g
mg/kg of compound of formula IV dose equivalent of the di-NMG
salt of the compound of the prior art represented by formula V
PHARMACOKINETIC ("PK") PARAMETERS OF THE
COMPOUND OF FORMULA IV IN MOUSE^1 PLASMA
FOLLOWING INTRAVENOUS ADMINISTRATION OF 20 MG/KG
OF COMPOUND OF FORMULA IV DOSE EQUIVALENT OF THE
DI-NMG SALTS OF THE COMPOUNDS OF FORMULAS II AND V
IN STERILE WATER TO MICE.

[11] = test system: Aspergillus species; assay: In vitro antifungal activity against Aspergillus species; assay type: cell-based; conditions: Aspergillus species (n = 30); Espinel-Ingroff's methodology
Procedure: as §1, §2
^2 In vitro activity against Aspergillus measured in accordance with
EspinelIngroff's Methodology

[12] = read-out: G mean MICs (geometric mean MIC)

SMILES	MIC [1, 12] [µg/mL]	MIC ([1]; read-out: MIC Range) [µg/mL]	MIC [3, 12] [µg/mL]	site of hydrolysis in vivo [5]	AUC (of formula IV), time zero to 24 hrs [10]	MIC ([3]; read-out: MIC Range) [µg/mL]	MIC [11] [µg/mL]	antifungal activity in in vivo tests in mice versus existing antifungal agents [4]	other results
CC[C@@H]([C@H](C)OC(=O)CCCOP(=O)(O)O)n1ncn(-c2ccc(N3CCN(c4ccc(OC[C@@H]5CO[C@@](Cn6cncn6)(c6ccc(F)cc6F)C5)cc4)CC3)cc2)c1=O [Formula II, 5-[[2(S)-[4-[4-[4-[4-[[(R-cis)-5-(2,4-difluorophenyl)-tetrahydro-5-(1H-1,2,4-triazol-1-ylmethyl)-3-furanyl]methoxy]phenyl]-1-piperazinyl]phenyl]-4,5-dihydro-5-oxo-1H-1,2,4-triazol-1-yl]-1(S)-methylbutyl]oxy]-5-oxobutyl phosphate]	1.9	0.125 to 32	7.5	primarily in the serum and in tissues (liver, lung and kidney)					in vitro antifungal activity, comparison of geometric mean MICs [2]: much lower; in vivo activity in two mice models ([4]; systemic Candida albicans and pulmonary Aspergillus fumigatus): good in vivo activity; survival at day 9 [6]: 100%; survival [7]: 70%; metabolism [8]: metabolized to the compound of formula IV via the metabolite represented by formula III
CC[C@@H]([C@H](C)OC(=O)CCCOP(=O)(O)O)n1ncn(-c2ccc(N3CCN(c4ccc(OC[C@@H]5CO[C@@](Cn6cncn6)(c6ccc(F)cc6F)C5)cc4)CC3)cc2)c1=O [Formula II.2 NMG]					79.1				water solubility [9]: water soluble; blood levels of the compound of formula IV ([10]; mice, intravenous, in water): superior blood levels; pharmacokinetic parameters of formula IV versus those from di-NMG salt of formula V ([10]; mice, intravenous, side-by-side comparison): unexpectedly superior
CC[C@@H]([C@H](C)OC(=O)CCCO)n1ncn(-c2ccc(N3CCN(c4ccc(OC[C@@H]5CO[C@@](Cn6cncn6)(c6ccc(F)cc6F)C5)cc4)CC3)cc2)c1=O [Formula III, 2(S)-[4-{4-{4-{4-[[(R-Cis)-2-(2,4-difluorophenyl)-tetrahydro-2-(1H-1,2,4-triazol-1-ylmethyl)-4-furanyl]methoxy]phenyl]-1-piperazinyl]phenyl]-4,5-dihydro-5-oxo-1H-1,2,4-triazol-1-yl]-1-(S)-methylbutyl-4-hydroxy-butanoate]	0.09	0.0156 to 0.5	0.3	primarily in the serum		0.0156 to 8	0.0313 to 2	unexpectedly better than that of existing antifungal agents	
CC[C@@H]([C@H](C)O)n1ncn(-c2ccc(N3CCN(c4ccc(OC[C@@H]5CO[C@@](Cn6cncn6)(c6ccc(F)cc6F)C5)cc4)CC3)cc2)c1=O [Formula IV, reference compound]	0.04	0.015 to 0.5	0.2			0.0156 to 8	0.0156 to 1	unexpectedly better than that of existing antifungal agents	
CC[C@@H]([C@H](C)OC(=O)CCCCOP(=O)(O)O)n1ncn(-c2ccc(N3CCN(c4ccc(OC[C@@H]5CO[C@@](Cn6cncn6)(c6ccc(F)cc6F)C5)cc4)CC3)cc2)c1=O [Formula V.2 NMG, reference compound]					36.7				
